Laboratory results taken from the NIST ThermoML archive (doi:10.1016/j.jct.2018.08.035).

Assay: xn = mol fraction of the nth substance listed
Conditions: 100 kPa, Liquid, Vibrating tube method

CCC(O)CC [3-pentanol] + C[N+](=O)[O-]
Conditions | mass density [kg/m3]
290.86 K, x1 = 0.414 | 977.244
290.86 K, x1 = 0.615 | 890.972
290.95 K, x1 = 0.246 | 1006.81
290.95 K, x1 = 0.266 | 998.292
290.95 K, x1 = 0.275 | 994.793
290.95 K, x1 = 0.3 | 988.13
290.95 K, x1 = 0.325 | 987.695
290.95 K, x1 = 0.338 | 986.437
290.95 K, x1 = 0.363 | 982.374
290.95 K, x1 = 0.382 | 980.189
290.95 K, x1 = 0.407 | 976.76
290.95 K, x1 = 0.414 | 976.042
290.95 K, x1 = 0.486 | 956.644
290.95 K, x1 = 0.488 | 952.742
290.95 K, x1 = 0.546 | 927.124
290.95 K, x1 = 0.573 | 908.776
290.95 K, x1 = 0.587 | 897.749
290.95 K, x1 = 0.615 | 890.865
291.05 K, x1 = 0.246 | 1006.69
291.05 K, x1 = 0.275 | 994.663
291.05 K, x1 = 0.382 | 978.765
291.05 K, x1 = 0.407 | 975.346
291.05 K, x1 = 0.414 | 974.647
291.05 K, x1 = 0.486 | 954.019
291.05 K, x1 = 0.488 | 945.483
291.05 K, x1 = 0.573 | 903.111
291.06 K, x1 = 0.266 | 998.167
291.06 K, x1 = 0.3 | 986.306
291.06 K, x1 = 0.325 | 985.699
291.06 K, x1 = 0.338 | 984.897
291.06 K, x1 = 0.363 | 981.518
291.06 K, x1 = 0.546 | 924.902
291.06 K, x1 = 0.587 | 897.593
291.06 K, x1 = 0.615 | 890.758
291.15 K, x1 = 0.246 | 1006.56
291.15 K, x1 = 0.266 | 998.042
291.15 K, x1 = 0.275 | 994.538
291.15 K, x1 = 0.3 | 985.201
291.15 K, x1 = 0.325 | 983.513
291.15 K, x1 = 0.338 | 982.822
291.15 K, x1 = 0.382 | 977.024
291.15 K, x1 = 0.407 | 973.664
291.15 K, x1 = 0.414 | 973.001
291.15 K, x1 = 0.486 | 951.113
291.15 K, x1 = 0.488 | 947.64
291.15 K, x1 = 0.573 | 901.117
291.15 K, x1 = 0.615 | 890.652
291.15 K, x1 = 0.629 | 887.189
291.16 K, x1 = 0.363 | 980.295
291.16 K, x1 = 0.546 | 921.069
291.16 K, x1 = 0.587 | 897.497
291.25 K, x1 = 0.246 | 1006.44
291.25 K, x1 = 0.266 | 997.918
291.25 K, x1 = 0.275 | 994.413
291.25 K, x1 = 0.3 | 985.014
291.25 K, x1 = 0.325 | 980.203
291.25 K, x1 = 0.338 | 980.22
291.25 K, x1 = 0.382 | 974.837
291.25 K, x1 = 0.407 | 971.578
291.25 K, x1 = 0.414 | 970.955
291.25 K, x1 = 0.486 | 947.303
291.25 K, x1 = 0.488 | 944.104
291.25 K, x1 = 0.573 | 901.031
291.25 K, x1 = 0.587 | 897.388
291.25 K, x1 = 0.615 | 890.547
291.26 K, x1 = 0.363 | 978.023
291.26 K, x1 = 0.546 | 917.045
291.35 K, x1 = 0.246 | 1006.32
291.35 K, x1 = 0.275 | 994.289
291.35 K, x1 = 0.382 | 972.169
291.35 K, x1 = 0.407 | 969.156
291.35 K, x1 = 0.414 | 968.504
291.35 K, x1 = 0.486 | 943.014
291.35 K, x1 = 0.488 | 939.641
291.35 K, x1 = 0.573 | 900.922
291.36 K, x1 = 0.266 | 997.796
291.36 K, x1 = 0.3 | 984.888
291.36 K, x1 = 0.325 | 976.768
